Active and inactive are the calls of the source. No cut-off for these calls is given here.
Experiments:
[1] = Antifungal activity against wild-type Candida albicans ATCC 32354 assessed as growth inhibition using alamar blue staining measured after 14 to 16 hrs by microdilution assay; assay type: functional
[2] = Antifungal activity against Trichophyton assessed as growth inhibition using alamar blue staining measured after 14 to 16 hrs by microdilution assay; assay type: functional
Aspergillus = test: Antifungal activity against Aspergillus assessed as growth inhibition using alamar blue staining measured after 14 to 16 hrs by microdilution assay; assay type: functional
[3] = Cytotoxicity against mouse P388 cells; assay type: functional, cell-based
[4] = Binding affinity to cholesterol containing DMPC-d54/DHPC-d22 bicelles assessed as broadening of aromatic/olefinic signals at 6.5 to 7.6 ppm measured at 200 uM by 1H NMR spectroscopy
[5] = Induction of membrane damage in POPC/cholesterol GUV model assessed as membrane curvature at 20 uM after 13 to 55 mins by TNM-DCCH staining based confocal microscopic analysis
[6] = Binding affinity to cholesterol containing DMPC-d54/DHPC-d22 bicelles assessed as […] measured at ratio of 1:10 Mn2+ to compound by 1H NMR spectroscopy relative to control
[7] = Binding affinity to cholesterol containing DMPC-d54/DHPC-d22 bicelles assessed as […] measured at ratio of 4:10 Mn2+ to compound by 1H NMR spectroscopy relative to control
[8] = Binding affinity to cholesterol containing POPC large unilamellar vescicle in pH 7.4 phosphate buffer by SPR analysis
Lipid bilayer = test: Binding affinity to POPC large unilamellar vesicle in pH 7.4 phosphate buffer by SPR analysis
[9] = Binding affinity to DMPC-d54/DHPC-d22 bicelles assessed as […] measured at ratio of 4:10 Mn2+ to compound by 1H NMR spectroscopy relative to control
[10] = Diffusion coefficient of the compound D2O at 11 mM and 25 degC by 1H NMR spectroscopy; assay type: physicochemical; settings: 11000 µM
[11] = Aqueous diffusion coefficient of compound in 98:2 ratio of D2O/H2O solvent system at 25 degC by 1H NMR DOSY spectroscopy; assay type: physicochemical; settings: buffer

SMILES	IC50 [1]	IC50 [2]	IC50 (Aspergillus)	IC50 [3]	Activity [4]	Activity [5]	Ratio [6]	Ratio [7]	Kd [8]	Kd (Lipid bilayer)	Ratio [9]	D [10]	D [11]
CC(/C=C/c1ccc(Br)cc1)=C\[C@H](O)[C@@H]1CC(=O)N[C@@H](CO)C(=O)N[C@@H]2C[n+]3c[nH]c(c3)C[C@H](NC(=O)C[C@H](O)C[C@@H](C(=O)[O-])NC(=O)[C@@H](O)CNC(=O)[C@H]([C@@H](C)c3ccc(Br)cc3)NC(=O)[C@H]([C@@H](O)C(N)=O)NC(=O)[C@H](CC(N)=O)NC2=O)C(=O)N[C@@H]([C@H](C)O)C(=O)N[C@@H](CO)C(=O)N[C@@H](Cc2ccccc2)C(=O)N1	2 to 7 µM	2 to 7 µM	2 to 7 µM	500 to 2800 nM	–	–	–	–	–	–	–	–	–
CC(/C=C/c1ccc(Br)cc1)=C\[C@H](O)[C@@H]1CC(=O)N[C@@H](CO)C(=O)N[C@@H]2C[n+]3c[nH]c(c3)C[C@H](NC(=O)C[C@H](O)C[C@@H](C(=O)[O-])NC(=O)CCNC(=O)[C@H](Cc3ccc(Br)cc3)NC(=O)[C@H]([C@@H](O)C(N)=O)NC(=O)[C@H](CC(N)=O)NC2=O)C(=O)N[C@@H]([C@H](C)O)C(=O)N[C@@H](CO)C(=O)N[C@@H](Cc2ccccc2)C(=O)N1	2 to 7 µM	2 to 7 µM	2 to 7 µM	500 to 2800 nM	–	–	–	–	–	–	–	–	–
CC(/C=C/c1ccc(Br)cc1)=C\[C@H](O)[C@@H]1CC(=O)N[C@@H](CO)C(=O)N[C@@H]2Cn3cc([n+]([C@H]4OC[C@H](O)[C@H](O)[C@H]4O)c3)C[C@H](NC(=O)C[C@H](O)C[C@@H](C(=O)[O-])NC(=O)CCNC(=O)[C@H](Cc3ccc(Br)cc3)NC(=O)[C@H]([C@@H](O)C(N)=O)NC(=O)[C@H](CC(N)=O)NC2=O)C(=O)N[C@@H]([C@H](C)O)C(=O)N[C@@H](CO)C(=O)N[C@@H](Cc2ccccc2)C(=O)N1	2 to 7 µM	2 to 7 µM	2 to 7 µM	500 to 2800 nM	–	–	–	–	–	–	–	–	–
CC(/C=C/c1ccc(Br)cc1)=C\[C@H](O)[C@@H]1CC(=O)N[C@@H](CO)C(=O)N[C@@H]2C[n+]3c[nH]c(c3)C[C@H](NC(=O)C[C@H](O)C[C@@H](C(=O)[O-])NC(=O)CCNC(=O)[C@H](Cc3ccccc3)NC(=O)[C@H]([C@@H](O)C(N)=O)NC(=O)[C@H](CC(N)=O)NC2=O)C(=O)N[C@@H]([C@H](C)O)C(=O)N[C@@H](CO)C(=O)N[C@@H](Cc2ccccc2)C(=O)N1	2 to 7 µM	2 to 7 µM	2 to 7 µM	500 to 2800 nM	–	–	–	–	–	–	–	–	–
CC(/C=C/c1ccc(Br)cc1)=C\[C@H](O)[C@@H]1CC(=O)N[C@@H](CO)C(=O)N[C@@H]2Cn3cc([n+]([C@@H]4O[C@H](CO)[C@H](O)[C@H](O)[C@H]4O)c3)C[C@H](NC(=O)C[C@H](O)C[C@@H](C(=O)[O-])NC(=O)CCNC(=O)[C@H](Cc3ccc(Br)cc3)NC(=O)[C@H]([C@@H](O)C(N)=O)NC(=O)[C@H](CC(N)=O)NC2=O)C(=O)N[C@@H]([C@H](C)O)C(=O)N[C@@H](CO)C(=O)N[C@@H](Cc2ccccc2)C(=O)N1	2 to 7 µM	2 to 7 µM	2 to 7 µM	500 to 2800 nM	–	–	–	–	–	–	–	–	–
CC(/C=C/c1ccccc1)=C\[C@H](O)[C@@H]1CC(=O)N[C@@H](CO)C(=O)N[C@@H]2Cn3cc([n+]([C@@H]4O[C@H](CO)[C@H](O)[C@H](O)[C@H]4O)c3)C[C@H](NC(=O)C[C@H](O)C[C@@H](C(=O)[O-])NC(=O)[C@@H](O)CNC(=O)[C@H]([C@@H](C)c3ccc(Br)cc3)NC(=O)[C@H]([C@@H](O)C(N)=O)NC(=O)[C@H](CC(N)=O)NC2=O)C(=O)N[C@@H]([C@H](C)O)C(=O)N[C@@H](CO)C(=O)N[C@@H](Cc2ccccc2)C(=O)N1	2 to 7 µM	2 to 7 µM	2 to 7 µM	500 to 2800 nM	Active	Active	0.85	0.54 to 0.61	9.2 µM	420 µM	0.36 to 0.46	–	–
OC[C@H]1O[C@@H]2O[C@H]3[C@H](O)[C@@H](O)[C@@H](O[C@H]4[C@H](O)[C@@H](O)[C@@H](O[C@H]5[C@H](O)[C@@H](O)[C@@H](O[C@H]6[C@H](O)[C@@H](O)[C@@H](O[C@H]7[C@H](O)[C@@H](O)[C@@H](O[C@H]8[C@H](O)[C@@H](O)[C@@H](O[C@H]1[C@H](O)[C@H]2O)O[C@@H]8CO)O[C@@H]7CO)O[C@@H]6CO)O[C@@H]5CO)O[C@@H]4CO)O[C@@H]3CO [BETADEX]	–	–	–	–	–	–	–	–	–	–	–	2.64 ×10⁻¹⁰ m2/s	2.63 ×10⁻¹⁰ m2/s

Source: ChEMBL document CHEMBL3860058, “Sterol-dependent membrane association of the marine sponge-derived bicyclic peptide Theonellamide A as examined by 1H NMR” (Bioorg Med Chem, 2016)
